Reference: patent EP0595557A1, “New substituted azetidinones as anti-inflammatory and antidegenerative agents” (MERCK & CO. INC., priority 1992, dated 1994)

target: T1, Human Polymorphonuclear Leukocyte Elastase (Homo sapiens, UniProt P08246); assay: Enzyme assay for inhibition of human polymorphonuclear leukocyte elastase via hydrolysis of Boc-AAPAN or Boc-AAPVN; format: biochemical; settings: pH 7.5, second order rate constant for inactivation of the enzyme, expressed to the nearest thousand, read-out: Kobs/[I]
T1 construct: Crude extract of human polymorphonuclear leukocytes (PMN) containing elastase activity; from tissue; host or cells: human polymorphonuclear leukocytes (crude extract)
T1 sequence (P08246 30-267): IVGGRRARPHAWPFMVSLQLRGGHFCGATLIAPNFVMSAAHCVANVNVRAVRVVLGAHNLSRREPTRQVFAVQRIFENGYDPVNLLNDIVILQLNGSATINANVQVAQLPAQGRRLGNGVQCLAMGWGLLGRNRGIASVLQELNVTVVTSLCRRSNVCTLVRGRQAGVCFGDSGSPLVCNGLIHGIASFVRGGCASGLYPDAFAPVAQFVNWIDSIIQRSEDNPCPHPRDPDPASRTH
In short: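 Crude human PMN extract as enzyme source, with 0.2 mM Boc-AAPAN in 0.05M TES buffer pH 7.5. Inhibitors in DMSO were added to substrate before the extract, and rate was followed as ΔOD/min at 410 mµ. Values are kobs/I, the second-order inactivation rate constant (per mole per second).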

kinact/KI [M⁻¹ s⁻¹]	SMILES
637000	CCC[C@@H](NC(=O)N1C(=O)C(CC)(CC)[C@@H]1Oc1ccc(CC(N)=O)cc1)c1ccc(C)c(C(=O)N2CCOCC2)c1 [Compound 269]
990000	CCC[C@@H](NC(=O)N1C(=O)C(CC)(CC)[C@@H]1Oc1ccc(C(=O)N(CCC)CCC)cc1)c1ccc(C)cc1 [Compound 127]
1.99e+06	CCC[C@@H](NC(=O)N1C(=O)C(CC)(CC)[C@@H]1Oc1ccc(C(=O)OCCCCCCN(C)C)cc1)c1ccc(C)cc1 [Compound 24, [S-(R*,S*)]-6-(dimethylamino)hexyl-4-[[3,3-diethyl-1-[[[1-(4-methyl-phenyl)butyl]amino]carbonyl]-4-oxo-2-azetidinyl]oxy]-benzoate]
1.59e+06	CCC[C@@H](NC(=O)N1C(=O)C(CC)(CC)[C@@H]1Oc1ccc(C(=O)N(C)CC[N+](C)(C)[O-])cc1)c1ccc(C)cc1 [Compound 85]
2.58e+06	CCC[C@@H](NC(=O)N1C(=O)C(CC)(CC)[C@@H]1Oc1ccc(C(=O)N(C)CCN(C)C2CCC3CCC2C3)cc1)c1ccc(C)cc1 (stereo partly shown) [Compound 223]
1.95e+06	CCC[C@@H](NC(=O)N1C(=O)C(CC)(CC)[C@@H]1Oc1ccc(C(=O)N(C)C2CCN(Cc3ccccc3)CC2)cc1)c1ccc(C)cc1 [Compound 208]
984000	CCC[C@@H](NC(=O)N1C(=O)C(CC)(CC)[C@@H]1Oc1ccc(C(=O)N(C)CC(=O)O)cc1)c1ccc(C)cc1 [Compound 213]
2.19e+06	CCC[C@@H](NC(=O)N1C(=O)C(CC)(CC)[C@@H]1Oc1ccc(C(=O)N(C)CCN(CC)CC)cc1)c1ccc(C)cc1 [Compound 81]
1.75e+06	CCC[C@@H](NC(=O)N1C(=O)C(CC)(CC)[C@@H]1Oc1ccc(C(=O)N(C)C)cc1)c1ccc(C)cc1 [Compound 187]
1.57e+06	CCCC(NC(=O)N1C(=O)C(CC)(CC)C1Oc1ccc(C(=O)OCCN(C)C)cc1)c1ccc(C)cc1 (stereo not drawn) [Compound 1, 2-(dimethylamino)ethyl (S-(R*,S*))-4-((3,3-diethyl-1-(((1-(4-methyl-phenyl)butyl)amino)carbonyl)-4-oxo-2-azetidinyl)oxy)benzoate]
1.67e+06	CCCC(NC(=O)N1C(=O)C(CC)(CC)C1Oc1ccc(C(=O)OCC(=O)O)cc1)c1ccc(C)cc1 (stereo not drawn) [Compound 2, Carboxymethyl [S-(R*,S*)]4-((3,3-diethyl-1-(((1-(4-methyl-phenyl)butyl)amino)carbonyl)-4-oxo-2-azetidinyl)oxy)benzoate]
1.06e+06	CCC[C@@H](NC(=O)N1C(=O)C(CC)(CC)[C@@H]1Oc1ccc(C(=O)N(C)c2ccc(C(=O)O)cc2)cc1)c1ccc(C)cc1 [Compound 175]
1.52e+06	CCC[C@@H](NC(=O)N1C(=O)C(CC)(CC)[C@@H]1Oc1ccc(C(=O)N(C)CCOC(=O)N(C)C)cc1)c1ccc(C)cc1 [Compound 170]
2.12e+06	CCC[C@@H](NC(=O)N1C(=O)C(CC)(CC)[C@@H]1Oc1ccc(C(=O)N(C)CC(C)N(C)Cc2ccccc2)cc1)c1ccc(C)cc1 (stereo partly shown) [Compound 218]
1.36e+06	C=CCN(C)CCN(C)C(=O)c1ccc(O[C@@H]2N(C(=O)N[C@H](CCC)c3ccc(C)cc3)C(=O)C2(CC)CC)cc1 [Compound 166]
551000	CCC[C@@H](NC(=O)N1C(=O)C(CC)(CC)[C@@H]1Oc1ccc(C(=O)N(C)CCN(C)C)cc1)c1ccc(C(=O)N(C)C)cc1 [Compound 286]
577000	CCC[C@@H](NC(=O)N1C(=O)C(CC)(CC)[C@@H]1Oc1ccc(C(=O)N2CCOCC2)cc1)c1ccc(C(=O)N2CCOCC2)cc1 [Compound 280]
2.54e+06	CCC[C@@H](NC(=O)N1C(=O)C(CC)(CC)[C@@H]1Oc1ccc(C(=O)N(CCN(C)Cc2ccccc2)Cc2cccnc2)cc1)c1ccc(C)cc1 [Compound 191]
656000	CCC[C@@H](NC(=O)N1C(=O)C(CC)(CC)[C@@H]1Oc1ccc(C(=O)OCC(c2ccccc2)N(C)C)cc1)c1ccc(C)cc1 (stereo partly drawn) [Compound 30, 2-(dimethylamino)-2-phenylethyl [S-(R*,S*)]-4-[[3,3-diethyl-1-[[[1-(4-methylphenyl)butyl]amino]carbonyl]-4-oxo-2-azetidinyl]oxy]benzoate]
788000	CCC[C@@H](NC(=O)N1C(=O)C(CC)(CC)[C@@H]1Oc1ccc(C(=O)NS(=O)(=O)CCN(C)C)cc1)c1ccc(C)cc1 [Compound 88]
1.74e+06	CCC[C@@H](NC(=O)N1C(=O)C(CC)(CC)[C@@H]1Oc1ccc(C(=O)N(C)CCN(C)Cc2cc(OC)cc(OC)c2)cc1)c1ccc(C)cc1 [Compound 206]
2.13e+06	CCC[C@@H](NC(=O)N1C(=O)C(CC)(CC)[C@@H]1Oc1ccc(C(=O)N(C)CCN(C)C2C3CC4CC(C3)CC2C4)cc1)c1ccc(C)cc1 (stereo partly shown) [Compound 210]
4.12e+06	CCC[C@@H](NC(=O)N1C(=O)C(CC)(CC)[C@@H]1Oc1ccc(C(=O)OCCN2CCN(C(=O)OCc3ccccc3)CC2)cc1)c1ccc(C)cc1 [Compound 22, Benzyl [S-(R*,S*)]-4-[2-[[4-[[3,3-diethyl-1-[[[1-(4-methylphenyl)butyl]amino]carbonyl]-4-oxo-2-azetidinyl]oxy]benzoyl]oxy]-ethyl]-1-Piperazine-carboxylate]

kinact/KI [M⁻¹ s⁻¹]	SMILES
1.59e+06	CCC[C@@H](NC(=O)N1C(=O)C(CC)(CC)[C@@H]1Oc1ccc(C(=O)N(C)CCN(C)Cc2ccccc2Cl)cc1)c1ccc(C)cc1 [Compound 204]
1.53e+06	CCC[C@@H](NC(=O)N1C(=O)C(CC)(CC)[C@@H]1Oc1ccc(C(=O)NCCN2CCCC(O)C2)cc1)c1ccc(C)cc1 (stereo partly shown) [Compound 123]
740000	CCC[C@@H](NC(=O)N1C(=O)C(CC)(CC)[C@@H]1Oc1ccc(CC(=O)N(CC)CC)cc1)c1ccc(C)c(C(=O)N2CCOCC2)c1 [Compound 270]
854000	CCC[C@@H](NC(=O)N1C(=O)C(CC)(CC)[C@@H]1Oc1ccc(C(=O)N(C)CCN(C)C)cc1)c1ccc(CO)cc1 [Compound 288]
939000	CCC[C@@H](NC(=O)N1C(=O)C(CC)(CC)[C@@H]1Oc1ccc(CC(=O)NC(C)C(=O)N(CCO)CCO)cc1)c1ccc(C)cc1 (stereo partly shown) [Compound 51]
2.47e+06	CCC[C@@H](NC(=O)N1C(=O)C(CC)(CC)[C@@H]1Oc1ccc(C(=O)N(CCN(C)Cc2ccccc2)Cc2ccccn2)cc1)c1ccc(C)cc1 [Compound 194]
2.59e+06	CCC[C@@H](NC(=O)N1C(=O)C(CC)(CC)[C@@H]1Oc1ccc(C(=O)Nc2ccc(N(C)C)cc2)cc1)c1ccc(C)cc1 [Compound 113]
775000	CCC[C@@H](NC(=O)N1C(=O)C(CC)(CC)[C@@H]1Oc1ccc(C(=O)NS(=O)(=O)CCN2CCOCC2)cc1)c1ccc(C)cc1 [Compound 87]
724000	CCC[C@@H](NC(=O)N1C(=O)C(CC)(CC)[C@@H]1Oc1ccc(C(=O)Nc2ccc(F)cc2)cc1)c1ccc(C)cc1 [Compound 134]
1.18e+06	CCC[C@@H](NC(=O)N1C(=O)C(CC)(CC)[C@@H]1Oc1ccc(C(=O)OCCN(C)Cc2ccccc2)cc1)c1ccc(C)cc1 [Compound 31, 2-[methyl(phenylmethyl)amino]ethyl [S-(R*,S*)]-4-[[3,3-diethyl-1-[[[1-(4-methyl-phenyl)butyl]amino]carbonyl]-4-oxo-2-azetidinyl]oxy]benzoate]
1.47e+06	CCC[C@@H](NC(=O)N1C(=O)C(CC)(CC)[C@@H]1Oc1ccc(C(=O)OCC(C)(C)N(C)C)cc1)c1ccc(C)cc1 [Compound 20, 2-dimethylamino-2-methyl-1-propyl [S-(R*,S*)]-4-[[3,3-diethyl-1-[[[1-(4-methyl-phenyl)butyl]amino]carbonyl]-4-oxo-2-azetidinyl]oxy]benzoate]
1.48e+06	CCC[C@@H](NC(=O)N1C(=O)C(CC)(CC)[C@@H]1Oc1ccc(C(=O)N(C)CCN(C)C)cc1)c1ccc(Cl)cc1 [Compound 299]
169000	CCC[C@@H](NC(=O)N1C(=O)C(CC)(CC)[C@@H]1Oc1ccc(CC(=O)N2CCOCC2)cc1)c1cccc(C(=O)N2CCOCC2)c1 [Compound 266]
1.3e+06	CCC[C@@H](NC(=O)N1C(=O)C(CC)(CC)[C@@H]1Oc1ccc(CC(=O)NCC(=O)N(CCO)CCO)cc1)c1ccc(C)cc1 [Compound 49]
352000	CCC[C@@H](NC(=O)N1C(=O)C(CC)(CC)[C@@H]1Oc1cc(C)c(C(=O)N(C)CCN(C)C)c(C)c1)c1ccc(C)cc1 [Compound 307]
5.17e+06	CCC[C@@H](NC(=O)N1C(=O)C(CC)(CC)[C@@H]1Oc1ccc(C(=O)N2CCN(Cc3ccccc3)CC2)cc1)c1ccc(C)cc1 [Compound 246]
2.49e+06	CCC[C@@H](NC(=O)N1C(=O)C(CC)(CC)[C@@H]1Oc1ccc(C(=O)N(C)CCN(C)C(=O)NC)cc1)c1ccc(C)cc1 [Compound 106]
3.47e+06	CCC[C@@H](NC(=O)N1C(=O)C(CC)(CC)[C@@H]1Oc1ccc(C(=O)N(C)CCN2CCN(C(=O)OC(C)(C)C)CC2)cc1)c1ccc(C)cc1 [Compound 142]
1.12e+06	CCC[C@@H](NC(=O)N1C(=O)C(CC)(CC)[C@@H]1Oc1ccc(C(=O)N(C)CCN(C)Cc2ccc(C)cc2C)cc1)c1ccc(C)cc1 [Compound 195]
2.7e+06	CCC[C@@H](NC(=O)N1C(=O)C(CC)(CC)[C@@H]1Oc1ccc(C(=O)N2CCc3cc(OC)c(OC)cc3C2)cc1)c1ccc(C)cc1 [Compound 207]
2.48e+06	CCC[C@@H](NC(=O)N1C(=O)C(CC)(CC)[C@@H]1Oc1ccc(C(=O)N(C)CCN(C)C2CCC(CC)CC2)cc1)c1ccc(C)cc1 (stereo partly shown) [Compound 232]
1.99e+06	CCC[C@@H](NC(=O)N1C(=O)C(CC)(CC)[C@@H]1Oc1ccc(C(=O)N(C)CCN2CCC(O)CC2)cc1)c1ccc(C)cc1 [Compound 129]
564000	CCC[C@@H](NC(=O)N1C(=O)C(CC)(CC)[C@@H]1Oc1ccc(C(=O)N(C)CCN(C)Cc2cccc(C(F)(F)F)c2)cc1)c1ccc(C)cc1 [Compound 181]
